Structures are written as SMILES.

The test system of this data set is HeLa cells. The experiment in a line: Kinetic imaging of NBD-triazine probe uptake and sequestration, fitted to nested two-compartment transport model. In kind it is cell-based. The note with it: median over optimal solutions within 5% of the best fit. The method, then: In living cells, image data was simultaneously acquired with an automated, high-content, kinetic screening instrument equipped with an environmental chamber (see, e.g., V. C. Abraham, D. L. Taylor and J. R. Haskins, Trends in Biotechnology 22, 15 (2004); herein incorporated by reference in its entirety), as cells were incubated with the fluorescent molecules and after removal of extracellular probe. Data was analyzed off line, using an image analysis algorithm to measure the statistical pixel intensity distribution associated with fluorescence probe sequestration in the perinuclear region (see, e.g., FIG. 21; see also, e.g., G. J. Ding et al., Journal of Biological Chemistry 273, 28897 (1998); herein incorporated by reference in its entirety). Data was parametrized with a nested, two-compartment, transport model (see, e.g., W. E. Evans, J. J. Schentag and W. J. Jusko., Applied Pharmacokinetics: Principles of Therapeutic Drug Monitoring (Lippincott Williams & Wilkins, Vancouver, W.A., 1992); herein incorporated by reference in its entirety), using a statistical link function to relate the kinetic coefficient of variation (CV) of pixel intensities in the images with the concentration of probe in vesicles and cytoplasm. Optimal kinetic parameters fitting the experimental data for each probe to the system described by the two-compartment model and statistical link function were determined using the simulated annealing technique (see, e.g., M. Pincus., Oper. Res. 18, 1225 (1979); herein incorporated by reference in its entirety). The present invention is not limited to a particular mechanism. Indeed, an understanding of the mechanism is not necessary to practice the present invention.
To assess how well the model accounts for all the different kinetic traces acquired, a “PVE” (proportion of variance explained) by the model was calculated. The PVE is one minus the ratio of the sum of squared differences between observed and fitted values to the sum of squared differences between observed values and their mean. PVE values close to one indicate good fit to the nested two-compartment model. The average PVE across the probes was 0.92, with >50% of the probes yielded PVE values […]. The present invention is not limited to a particular mechanism. Indeed, an understanding of the mechanism is not necessary to practice the present invention.
Cell culture. HeLa cells were grown in RPMI+10% FCS in a 5% CO2 atmosphere at 37° C. and plated in 96-well plates at a density of 3000 cells/well 24 hours prior to the start of the experiment.
Kinetic Imaging. For influx experiments, cells on 96-well plates were switched to imaging media consisting of RPMI containing 1.0 mM Bromophenol Blue—a soluble, cell-impermeant chromophore used to suppress excitation and emission of extracellular (background) dye fluorescence-, 10 μM probe and 0.1 μM Hoescht 33258 to label the cell nuclei. Plates were then transferred to a KineticScan instrument (Cellomics, Inc., Pittsburgh, Pa.), which contains an environmentally controlled CO2/temperature/humidity chamber, and data was acquired with a 20× objective lens. Images acquisition began approximately 10 min after dye addition, using the Hoescht channel to acquire nuclear images and FITC channel to acquire the NBD image. Plate-scanning mode was used for scanning, in which the instrument builds time-stacks of images by scanning the plate multiple times, returning to the same site of the plate at every scan. For efflux experiments, dye-containing media was removed from the wells of the plate. The wells were washed twice with fresh RPMI medium, imaging media was added, and image acquisition restarted 7 min after the dye-containing media was removed. The last time points of the influx experiment served as the first time point of the efflux experiment. Plates were scanned for approximately two hours in the influx experiment and six hours for the efflux experiment, with each well imaged on average every 7 minutes. […]
Take `CCCCCCCCNc1nc(NCCCCCCNc2ccc([N+](=O)[O-])c3nonc23)nc(NCc2cccc(OC)c2OC)n1` [Compound H3]: the “median Pap(cyto) (apparent partition coefficient between extracellular medium and cytosol)” value (shortened to “median Pap(cyto)”) was 7.51; the “median Pap(ves) (apparent partition coefficient between cytosol and intracellular vesicles, k(ves)in/k(ves)out)” value (“median Pap(ves)” below) stood at 14.91.

On to `CCCCNc1nc(NCCCCCCNc2ccc([N+](=O)[O-])c3nonc23)nc(NCc2cccc(OC)c2)n1` [Compound B1], for which the “median Pap(cyto)” value was found to be 262.28; the “median Pap(ves)” value is on record as 0.31.

Regarding `CCCCCCCCNc1nc(NCCCCCCNc2ccc([N+](=O)[O-])c3nonc23)nc(NCc2ccccc2)n1` [Compound A3], the “median Pap(cyto)” value was determined as 12.96; the “median Pap(ves)” value is recorded as 6.45.

Consider `CC1CCC(Nc2nc(NCCCCCCNc3ccc([N+](=O)[O-])c4nonc34)nc(NCc3cccc(F)c3)n2)CC1` (centres unmarked) [Compound E4], for which the “median Pap(cyto)” value was determined as 11.91; the “median Pap(ves)” value turned out to be 16.46.

For `Cc1ccc(CNc2nc(NCCCCCCNc3ccc([N+](=O)[O-])c4nonc34)nc(NC3CCC(C)CC3)n2)cc1` (centres unmarked) [Compound G4], the “median Pap(cyto)” value is 23.97; the “median Pap(ves)” value is recorded as 4.01.

For `CC(C)Nc1nc(NCCCCCCNc2ccc([N+](=O)[O-])c3nonc23)nc(NCc2ccccc2)n1` [Compound A2], the “median Pap(cyto)” value is 13.18; the “median Pap(ves)” value amounted to 13.98.

Take `Cc1ccc(CNc2nc(NCCCCCCNc3ccc([N+](=O)[O-])c4nonc34)nc(NCC3CCCCC3)n2)cc1` [Compound G6]: the “median Pap(cyto)” value worked out at 35.66; the “median Pap(ves)” value is on record as 10.12.

As to `COc1ccc(CCNc2nc(NCCCCCCNc3ccc([N+](=O)[O-])c4nonc34)nc(NCCC(C)C)n2)cc1` [Compound D8], the “median Pap(cyto)” value worked out at 236.99; the “median Pap(ves)” value amounted to 0.24.

`CC1CCC(Nc2nc(NCCCCCCNc3ccc([N+](=O)[O-])c4nonc34)nc(NCc3ccccc3)n2)CC1` (centres unmarked) [Compound A4]: the “median Pap(cyto)” value stood at 7.72; the “median Pap(ves)” value turned out to be 29.83.

With `O=[N+]([O-])c1ccc(NCCCCCCNc2nc(NCCc3ccccc3)nc(NCCC(c3ccccc3)c3ccccc3)n2)c2nonc12` [Compound F10], the “median Pap(cyto)” value is listed as 1.44; the “median Pap(ves)” value worked out at 53.44.

With `O=[N+]([O-])c1ccc(NCCCCCCNc2nc(NCCc3ccccn3)nc(NCc3ccccc3)n2)c2nonc12` [Compound A9], the “median Pap(cyto)” value was 11.54; the “median Pap(ves)” value stood at 19.12.

`COc1cccc(CNc2nc(NCCCCCCNc3ccc([N+](=O)[O-])c4nonc34)nc(NC3CCC(C)CC3)n2)c1` (centres unmarked) [Compound B4]: the “median Pap(cyto)” value turned out to be 18.09; the “median Pap(ves)” value was determined as 12.15.

Take `CC1CCCCC1Nc1nc(NCCCCCCNc2ccc([N+](=O)[O-])c3nonc23)nc(NCc2ccccc2)n1` (centres unmarked) [Compound A5]: the “median Pap(cyto)” value was found to be 19.23; the “median Pap(ves)” value was found to be 12.11.

With `COc1cccc(CNc2nc(NCCCCCCNc3ccc([N+](=O)[O-])c4nonc34)nc(NCCC(C)C)n2)c1OC` [Compound H8], the “median Pap(cyto)” value was found to be 12.95; the “median Pap(ves)” value is reported as 15.10.

For the molecule `Cc1ccc(CNc2nc(NCCCCCCNc3ccc([N+](=O)[O-])c4nonc34)nc(NC(C)C)n2)cc1` [Compound G2], the “median Pap(cyto)” value came out at 211.16; the “median Pap(ves)” value is reported as 0.28.

For the molecule `COc1cccc(CNc2nc(NCCCCCCNc3ccc([N+](=O)[O-])c4nonc34)nc(NC(C)C)n2)c1` [Compound B2], the “median Pap(cyto)” value worked out at 11.59; the “median Pap(ves)” value stood at 10.82.

`O=[N+]([O-])c1ccc(NCCCCCCNc2nc(NCCc3ccccc3)nc(NCc3cccc(F)c3)n2)c2nonc12` [Compound E10]: the “median Pap(cyto)” value is 5.10; the “median Pap(ves)” value was 14.90.

On to `CCCCCCCCNc1nc(NCCCCCCNc2ccc([N+](=O)[O-])c3nonc23)nc(NCc2cccc(OC)c2)n1` [Compound B3], for which the “median Pap(cyto)” value is 3.43; the “median Pap(ves)” value amounted to 31.61.

Turning to `COc1cccc(CNc2nc(NCCCCCCNc3ccc([N+](=O)[O-])c4nonc34)nc(NC3CCCCC3)n2)c1` [Compound B7], the “median Pap(cyto)” value came out at 12.22; the “median Pap(ves)” value came out at 11.80.

Regarding `CCCCNc1nc(NCCCCCCNc2ccc([N+](=O)[O-])c3nonc23)nc(NCc2ccc(OC)cc2)n1` [Compound C1], the “median Pap(cyto)” value was 10.25; the “median Pap(ves)” value is listed as 22.06.

Take `Cc1ccc(CNc2nc(NCCCCCCNc3ccc([N+](=O)[O-])c4nonc34)nc(NCCc3ccccn3)n2)cc1` [Compound G9]: the “median Pap(cyto)” value came out at 267.03; the “median Pap(ves)” value was determined as 0.20.

For the molecule `CCCCNc1nc(NCCCCCCNc2ccc([N+](=O)[O-])c3nonc23)nc(NCc2cccc(OC)c2OC)n1` [Compound H1], the “median Pap(cyto)” value amounted to 161.46; the “median Pap(ves)” value came out at 0.42.

In the case of `COc1ccc(CCNc2nc(NCCCCCCNc3ccc([N+](=O)[O-])c4nonc34)nc(NC3CCCCC3C)n2)cc1` (centres unmarked) [Compound D5], the “median Pap(cyto)” value came to 9.15; the “median Pap(ves)” value is on record as 13.58.

For `CC(C)CCNc1nc(NCCCCCCNc2ccc([N+](=O)[O-])c3nonc23)nc(NCc2cccc(F)c2)n1` [Compound E8], the “median Pap(cyto)” value was determined as 12.09; the “median Pap(ves)” value came to 11.21.

On to `COc1cccc(CNc2nc(NCCCCCCNc3ccc([N+](=O)[O-])c4nonc34)nc(NCCC(C)C)n2)c1` [Compound B8], for which the “median Pap(cyto)” value came to 9.79; the “median Pap(ves)” value is recorded as 23.66.

The values above are taken from patent US20070111251A1, “Chemical address tags” (priority 2003, published 2007).
